US6861390B2, “Derivatives of UK-2A” (priority 2001, dated 2005)

Assays:
[1] = tested on: Erysiphe graminis (ERYSGT); assay: Powdery Mildew of Wheat, whole plant 24 Hour Protectant (T1); conditions: Blumeria graminis, in Triticum aestivum, read-out: T1 ERYSGT in vivo 1 Day Protectant, control of fungal infection
Procedure: Compound formulation was accomplished by dissolving technical materials in acetone, with serial dilutions then made in acetone to obtain desired concentrations. Final treatment volumes were obtained by adding 9 volumes 0.01% Triton X-100.
Powdery Mildew of Wheat (Erysiphe graminis—ERYSGT) (24 Hour Protectant): Wheat (cultivar Monon) was grown in a soilless peat-based potting mixture (“Metromix”) and mineral soil (50/50 mix) until the seedlings were 10-20 cm tall. These plants were then sprayed to run-off with the test compound at a rate of 100 ppm. After 24 hours the test plants were inoculated by dusting with conidia from powdery mildew infected wheat plants. The plants were then transferred to the greenhouse until disease developed on the untreated control plants.

[2] = tested on: Phytophthora infestans (PHYTIN); assay: microbe, parasite or virus in culture; type: cell-based; conditions: in Secale cereale, read-out: T8 PHYTIN in vitro Growth Inhibition
[3] = tested on: Magnaporthe grisea (Pyricularia oryzae, PYRIOR); assay: microbe, parasite or virus in culture; type: cell-based; conditions: read-out: T9 PYRIOR in vitro Growth Inhibition
Ustilago maydis (USTIMA) = assay: microbe, parasite or virus in culture; type: cell-based; conditions: Mycosarcoma maydis, read-out: T12 USTIMA in vitro Growth Inhibition
[4] = tested on: Septoria tritici (SEPTTR); assay: Leaf Blotch of Wheat, whole plant 24 Hour Protectant (T6); conditions: Zymoseptoria tritici; wheat (cultivar Monon), sprayed at 100 ppm, inoculated after 24 hours; read-out: T6 SEPTTR in vivo 1 Day Protectant, control of fungal infection
[5] = tested on: Leptosphaeria nodorum (LEPTNO); assay: Glume Blotch of Wheat, whole plant 24 Hour Protectant (T2); conditions: Parastagonospora nodorum; wheat (cultivar Yuma), sprayed at 100 ppm, inoculated after 24 hours; read-out: T2 LEPTNO in vivo 1 Day Protectant, control of fungal infection
[6] = tested on: Phytophthora infestans (PHYTIN); assay: whole plant or invertebrate; conditions: in Solanum lycopersicum, 24 h, read-out: T3 PHYTIN in vivo 1 Day Protectant, control of fungal infection
[7] = tested on: Mycosphaerella graminicola (Septoria tritici, SEPTTR); assay: microbe, parasite or virus in culture; type: cell-based; conditions: Zymoseptoria tritici, read-out: T11 SEPTTR in vitro Growth Inhibition
[8] = tested on: Rhizoctonia solani (RHIZSO); assay: microbe, parasite or virus in culture; type: cell-based; conditions: read-out: T10 RHIZSO in vitro Growth Inhibition
[9] = tested on: Stagonospora nodorum (Leptosphaeria nodorum, LEPTNO); assay: microbe, parasite or virus in culture; type: cell-based; conditions: Parastagonospora nodorum, read-out: T7 LEPTNO in vitro Growth Inhibition
[10] = tested on: Puccinia recondita (PUCCRT); assay: Brown Rust of Wheat, whole plant 24 Hour Protectant (T5); conditions: wheat (cultivar Yuma), sprayed at 100 ppm, inoculated after 24 hours, read-out: T5 PUCCRT in vivo 1 Day Protectant, control of fungal infection

| SMILES | pest or weed control at 100 ppm [1] | melting point | inhibition at 25 ppm [2] | inhibition at 25 ppm [3] | inhibition at 25 ppm (Ustilago maydis (USTIMA)) | pest or weed control at 100 ppm [4] | pest or weed control at 100 ppm [5] | pest or weed control at 100 ppm [6] | inhibition at 25 ppm [7] | inhibition at 25 ppm [8] | inhibition at 25 ppm [9] | pest or weed control at 100 ppm [10] |
| --- | --- | --- | --- | --- | --- | --- | --- | --- | --- | --- | --- | --- |
| COc1ccnc(C(=O)N[C@H]2COC(=O)[C@H](Cc3ccccc3)[C@@H](OC(=O)C(C)C)[C@H](C)OC2=O)c1OCOC(C)C [Compound 7] | 25 to 74% | 124 to 127 °C | < 80% | < 80% | > 80% | 75 to 100% | 75 to 100% | < 25% | < 80% | < 80% | > 80% | 75 to 100% |
| COc1ccnc(C(=O)N[C@H]2COC(=O)[C@H](Cc3ccccc3)[C@@H](OC(=O)C(C)C)[C@H](C)OC2=O)c1OCOCC(C)C [Compound 9] | < 25% | 133 to 136 °C | < 80% | < 80% | > 80% | 25 to 74% | 75 to 100% | < 25% | > 80% | > 80% | > 80% | 75 to 100% |
| COc1ccnc(C(=O)N[C@H]2COC(=O)[C@H](Cc3ccccc3)[C@@H](OC(=O)C(C)C)[C@H](C)OC2=O)c1OCO[Si](C)(C)C [Compound 13] | < 25% | 50 to 52 °C | < 80% | < 80% | < 80% | 75 to 100% | 75 to 100% | < 25% | < 80% | > 80% | > 80% | 75 to 100% |
| COc1ccnc(C(=O)N[C@H]2COC(=O)[C@H](Cc3ccccc3)[C@@H](OC(=O)C(C)C)[C@H](C)OC2=O)c1OCOCCCl [Compound 14] | < 25% | 140 to 143 °C | < 80% | < 80% | < 80% | 75 to 100% | 75 to 100% | < 25% | < 80% | < 80% | > 80% | 75 to 100% |
| COc1ccnc(C(=O)N[C@H]2COC(=O)[C@H](Cc3ccccc3)[C@@H](OC(=O)C(C)C)[C@H](C)OC2=O)c1OCOCCC#N [Compound 15] | < 25% | 62 to 67 °C | < 80% | < 80% | > 80% | 75 to 100% | 75 to 100% | < 25% | < 80% | > 80% | > 80% | 75 to 100% |
| COc1ccnc(C(=O)N[C@H]2COC(=O)[C@H](Cc3ccccc3)[C@@H](OC(=O)C(C)C)[C@H](C)OC2=O)c1OCOC(C)=O [Compound 20] | 75 to 100% | 146 to 147 °C | < 80% | < 80% | > 80% | 75 to 100% | 75 to 100% | < 25% | < 80% | < 80% | > 80% | 75 to 100% |
| CCCC(=O)OCOc1c(OC)ccnc1C(=O)N[C@H]1COC(=O)[C@H](Cc2ccccc2)[C@@H](OC(=O)C(C)C)[C@H](C)OC1=O [Compound 22] | 75 to 100% | 102 to 105 °C | < 80% | < 80% | < 80% | 75 to 100% | 75 to 100% | < 25% | < 80% | < 80% | > 80% | 75 to 100% |
| COc1ccnc(C(=O)N[C@H]2COC(=O)[C@H](Cc3ccccc3)[C@@H](OC(=O)C(C)C)[C@H](C)OC2=O)c1OCOC(=O)C(C)(C)C [Compound 24] | 25 to 74% | 178 to 179 °C | < 80% | > 80% | < 80% | 75 to 100% | 75 to 100% | < 25% | > 80% | < 80% | < 80% | 75 to 100% |
| COc1ccnc(C(=O)N[C@H]2COC(=O)[C@H](Cc3ccccc3)[C@@H](OC(=O)C(C)C)[C@H](C)OC2=O)c1OC(C)OC(C)=O (stereo partly drawn) [Compound 25] | < 25% | 58 to 65 °C | < 80% | < 80% | > 80% | 75 to 100% | 75 to 100% | < 25% | > 80% | < 80% | > 80% | 75 to 100% |
| COc1ccnc(C(=O)N[C@H]2COC(=O)[C@H](Cc3ccccc3)[C@@H](OC(=O)C(C)C)[C@H](C)OC2=O)c1OCOC(=O)C1CC1 [Compound 26] | 25 to 74% | 152 to 153 °C | < 80% | < 80% | < 80% | 75 to 100% | 75 to 100% | < 25% | < 80% | < 80% | > 80% | 75 to 100% |
| COCCC(=O)OCOc1c(OC)ccnc1C(=O)N[C@H]1COC(=O)[C@H](Cc2ccccc2)[C@@H](OC(=O)C(C)C)[C@H](C)OC1=O [Compound 27] | 75 to 100% | 84 to 86 °C | < 80% | > 80% | < 80% | 75 to 100% | 75 to 100% | < 25% | > 80% | < 80% | > 80% | 75 to 100% |
| CCOCCC(=O)OCOc1c(OC)ccnc1C(=O)N[C@H]1COC(=O)[C@H](Cc2ccccc2)[C@@H](OC(=O)C(C)C)[C@H](C)OC1=O [Compound 28] | 25 to 74% | 50 to 55 °C | < 80% | > 80% | > 80% | 75 to 100% | 75 to 100% | < 25% | > 80% | > 80% | > 80% | 75 to 100% |
